Tests used:
[1] = test system: Phytophthora infestans; type: in vivo; settings: tomato plants, protective spray, active ingredient concentration 100 ppm, evaluation 7 days after inoculation; 0% = control, 100% = no infection
[2] = for logp [a]: pH 2.7; for logp [b]: pH 7.8
[3] = test system: Plasmopara viticola; experiment: Plasmopara test (grapevine)/protective; type: in vivo; settings: grapevine young plants, protective spray, active ingredient concentration 10 ppm, evaluation 6 days after inoculation; 0% = control, 100% = no infection
Method: Plasmopara Test (Grapevine)/Protective
To produce an appropriate active ingredient formulation, 1 part by weight of active ingredient is mixed with the specified amounts of solvent and emulsifier, and the concentrate is diluted with water to the desired concentration.
To test for protective efficacy, young plants are sprayed with the active ingredient formulation at the stated application rate. After the spray coating has dried on, the plants are inoculated with an aqueous spore suspension of Plasmopara viticola and then remain in an incubation cabin at approx. 20° C. and 100% relative air humidity for 1 day. Subsequently, the plants are placed in a greenhouse at approx. 21° C. and approx. 90% air humidity for 4 days. The plants are then moistened and placed in an incubation cabin for 1 day.
Evaluation follows 6 days after the inoculation. 0% means an efficacy which corresponds to that of the control, whereas an efficacy of 100% means that no infection is observed.
In this test, the following inventive compounds show, at an active ingredient concentration of 10 ppm, an efficacy of 70% or more: […]

| Structure (SMILES) | Eff. % [1] [%] | logp [a] [2] | logp [b] [2] | Eff. % [3] [%] |
| --- | --- | --- | --- | --- |
| N#CCOc1ccccc1C1CC(c2csc(C3CCN(C(=O)Cn4nc(C(F)F)cc4C(F)F)CC3)n2)=NO1 (stereo not drawn) [I-63] | 94 | 3[a], | 2.91[b] | 100 |
| O=C(Cn1nc(C(F)F)cc1C(F)F)N1CCC(c2nc(C3=NOC(c4ccccc4OS(=O)(=O)C4CC4)C3)cs2)CC1 (stereo not drawn) [I-64] | 100 | 3.24[a], | 3.32[b] | 100 |
| Cc1ccc(C)c(NC(=O)N2CCC(c3nc(C4=NOC(c5ccccc5OS(C)(=O)=O)C4)cs3)CC2)c1 (stereo not drawn) [I-74] | 100 | 3.08[a], | 3.03[b] | 100 |
| Cc1cc(C(F)F)nn1CC(=O)N1CCC(c2nc(C3=NOC(c4ccccc4OCC#N)C3)cs2)CC1 (stereo not drawn) [I-76] | 100 | 2.7[a], | 2.62[b] | 93 |
| CCS(=O)(=O)Oc1cccc(C2CC(c3csc(C4CCN(C(=O)Cn5nc(C(F)F)cc5C(F)F)CC4)n3)=NO2)c1 (stereo not drawn) [I-77] | 98 | 3.08[a], | 2.99[b] | 93 |
| Cc1cc(C(F)(F)F)nn1CC(=O)N1CCC(c2nc(C3=NOC(c4c(Cl)cccc4OCC#N)C3)cs2)CC1 (stereo not drawn) [I-78] | 80 | 3.31[a], | 3.23[b] | 97 |
| N#CCOc1ccc(C2CC(c3csc(C4CCN(C(=O)Cn5nc(C(F)F)cc5C(F)F)CC4)n3)=NO2)cc1 (stereo not drawn) [I-81] | 100 | 2.89[a], | 2.8[b] | 99 |
| C/C=C/C(=O)Oc1ccccc1C1CC(c2csc(C3CCN(C(=O)Cn4nc(C(F)F)cc4C(F)F)CC3)n2)=NO1 (stereo not drawn) [I-82] | 70 | 3.46[a], | 3.37[b] | 94 |
| O=C(Cn1nc(C(F)F)cc1C(F)F)N1CCC(c2nc(C3=NOC(c4cccc(OS(=O)(=O)C5CC5)c4)C3)cs2)CC1 (stereo not drawn) [I-83] | 98 | 3.17[a], | 3.07[b] | 94 |
| O=C(Cn1nc(C(F)F)cc1C(F)F)N1CCC(c2nc(C3=NOC(c4cc(F)ccc4OS(=O)(=O)C4CC4)C3)cs2)CC1 (stereo not drawn) [I-84] | 90 | 3.32[a], | 3.35[b] | 100 |
| CS(=O)(=O)Oc1c(F)cccc1C1CC(c2csc(C3CCN(C(=O)Cn4nc(C(F)F)cc4C(F)F)CC3)n2)=NO1 (stereo not drawn) [I-85] | 75 | 2.97[a], | 2.91[b] | 100 |
| Cc1cc(C(F)(F)F)nn1CC(=O)N1CCC(c2nc(C3=NOC(c4c(F)cccc4OCC#N)C3)cs2)CC1 (stereo not drawn) [I-86] | 75 | 3.05[a], | 2.94[b] | 99 |
| N#CCCn1cccc1C1CC(c2csc(C3CCN(C(=O)Cn4nc(C(F)F)cc4C(F)F)CC3)n2)=NO1 (stereo not drawn) [I-87] | 80 | 2.71[a], | 2.64[b] | 95 |
| CS(=O)(=O)Oc1cccc(Cl)c1C1CC(c2csc(C3CCN(C(=O)Cn4nc(C(F)F)cc4C(F)F)CC3)n2)=NO1 (stereo not drawn) [I-102] | 75 | 3.2[a], | 3.09[b] | 100 |
| Cc1cc(C(F)(F)F)nn1CC(=O)N1CCC(c2nc(C3=NOC(c4c(Cl)cccc4OS(C)(=O)=O)C3)cs2)CC1 (stereo not drawn) [I-103] | 80 | 3.28[a], | 3.2[b] | 100 |
| O=CNc1ccccc1C1CC(c2csc(C3CCN(C(=O)Cn4nc(C(F)F)cc4C(F)F)CC3)n2)=NO1 (stereo not drawn) [I-108] | 100 | 2.42[a], | 2.32[b] | 93 |
| CSCOc1ccccc1C1CC(c2csc(C3CCN(C(=O)Cn4nc(C(F)F)cc4C(F)F)CC3)n2)=NO1 (stereo not drawn) [I-112] | 94 | 3.49[a], | 3.56[b] | 100 |
| N#CCOc1cccc(F)c1C1CC(c2csc(C3CCN(C(=O)Cn4nc(C(F)F)cc4C(F)F)CC3)n2)=NO1 (stereo not drawn) [I-113] | 85 | 2.87[a], | 2.88[b] | 100 |
| Cc1cc(C(F)(F)F)nn1CC(=O)N1CCC(c2nc(C3=NOC(c4cccc(F)c4OS(=O)(=O)C4CC4)C3)cs2)CC1 (stereo not drawn) [I-114] | 94 | 3.43[a], | 3.42[b] | 100 |

| Structure (SMILES) | Eff. % [1] [%] | logp [a] [2] | logp [b] [2] | Eff. % [3] [%] |
| --- | --- | --- | --- | --- |
| O=C(Cn1nc(C(F)F)cc1C(F)F)N1CCC(c2nc(C3=NOC(c4ccccc4OS(=O)(=O)C(F)(F)F)C3)cs2)CC1 (stereo not drawn) [I-115] | 88 | 3.92[a], | 3.92[b] | 100 |
| C=CC(=O)Oc1ccccc1C1CC(c2csc(C3CCN(C(=O)Cn4nc(C(F)F)cc4C(F)F)CC3)n2)=NO1 (stereo not drawn) [I-116] | 98 | 3.21[a], | 3.15[b] | 100 |
| C#CCN(C=O)c1ccccc1C1CC(c2csc(C3CCN(C(=O)Cn4nc(C(F)F)cc4C(F)F)CC3)n2)=NO1 (stereo not drawn) [I-117] | 79 | 2.65[a], | 2.67[b] | 96 |
| CCS(=O)(=O)Oc1ccccc1C1CC(c2csc(C3CCN(C(=O)Cn4nc(C(F)(F)F)cc4C)CC3)n2)=NO1 (stereo not drawn) [I-119] | 89 | 3.19[a], | 3.21[b] | 100 |
| CSCOc1ccccc1C1CC(c2csc(C3CCN(C(=O)Cn4nc(C(F)(F)F)cc4C)CC3)n2)=NO1 (stereo not drawn) [I-120] | 89 | 3.59[a], | 3.59[b] | 95 |
| N#CCN(C=O)c1ccccc1C1CC(c2csc(C3CCN(C(=O)Cn4nc(C(F)F)cc4C(F)F)CC3)n2)=NO1 (stereo not drawn) [I-121] | 100 | 2.62[a], | 2.55[b] | 98 |
| O=CNc1ccccc1C1CC(c2csc(C3CCN(C(=O)Nc4cc(C(F)F)ccc4C(F)F)CC3)n2)=NO1 (stereo not drawn) [I-122] | 97 | 2.63[a], | 2.54[b] | 89 |
| O=CNc1ccccc1C1CC(c2csc(C3CCN(C(=O)Cc4cc(C(F)F)ccc4C(F)F)CC3)n2)=NO1 (stereo not drawn) [I-123] | 100 | 2.74[a], | 2.64[b] | 73 |
| Cc1cc(C(F)(F)F)nn1CC(=O)N1CCC(c2nc(C3=NOC(c4ccccc4OS(=O)(=O)C(F)(F)F)C3)cs2)CC1 (stereo not drawn) [I-125] | 89 | 3.99[a], | 4[b] | 100 |
| CN(C)C(=S)c1ccccc1C1CC(c2csc(C3CCN(C(=O)Cn4nc(C(F)F)cc4C(F)F)CC3)n2)=NO1 (stereo not drawn) [I-127] | 97 | 3.11[a], | 3.06[b] | 96 |
| COC(=O)COc1ccc(C2CC(c3csc(C4CCN(C(=O)Cn5nc(C(F)F)cc5C(F)F)CC4)n3)=NO2)cc1 (stereo not drawn) [I-128] | 90 | 2.89[a], | 2.87[b] | 93 |
| O=C(Oc1ccccc1C1CC(c2csc(C3CCN(C(=O)Cn4nc(C(F)F)cc4C(F)F)CC3)n2)=NO1)c1cccc(F)c1 (stereo not drawn) [I-129] | 98 | 3.76[a], | 3.7[b] | 98 |
| O=C(Oc1ccccc1C1CC(c2csc(C3CCN(C(=O)Cn4nc(C(F)F)cc4C(F)F)CC3)n2)=NO1)c1ccccc1F (stereo not drawn) [I-130] | 100 | 3.61[a], | 3.58[b] | 100 |
| O=C(Oc1ccccc1C1CC(c2csc(C3CCN(C(=O)Cn4nc(C(F)F)cc4C(F)F)CC3)n2)=NO1)c1ccccc1 (stereo not drawn) [I-131] | 100 | 3.69[a], | 3.65[b] | 94 |
| O=C(Oc1ccccc1C1CC(c2csc(C3CCN(C(=O)Cn4nc(C(F)F)cc4C(F)F)CC3)n2)=NO1)c1ccc(F)cc1 (stereo not drawn) [I-132] | 100 | 3.73[a], | 3.7[b] | 96 |
| C[Si](C)(C)C#Cc1ccccc1C1CC(c2csc(C3CCN(C(=O)Cn4nc(C(F)F)cc4C(F)F)CC3)n2)=NO1 (stereo not drawn) [I-133] | 100 | 4.78[a], | 4.79[b] | 85 |
| C#CCOCc1ccccc1C1CC(c2csc(C3CCN(C(=O)Cn4nc(C(F)F)cc4C(F)F)CC3)n2)=NO1 (stereo not drawn) [I-138] | 93 | 3.74[a] | – | 98 |
| Cc1cc(C(F)(F)F)nn1CC(=O)N1CCC(c2nc(C3=NOC(c4ccccc4OCC#N)C3)cs2)CC1 (stereo not drawn) [I-140] | 84 | 2.97[a], | 2.98[b] | 100 |

From patent US9930890B2 (priority 2010, dated 2018)
